Results: publication PMC11487561 (ACS Chemical Neuroscience, 2024)
Where two headings read alike, the source gives them in different places.

Key:
human M4 (hM4) = target: T1, human M4 (hM4) (Homo sapiens, UniProt P08173); test: Calcium mobilization assay, hM4/Gqi5-CHO cells, EC20 acetylcholine (PAM); format: cell-based; settings: for fold increase in hM4 potency (EC50) vs comparator analogue: 14h vs 14c, 22g vs 14j, 22j vs 14k, 22k vs 14g, 22f vs 14e; for Emax: read-out: hM4 %ACh Max
T1 construct: expressed in transfected cells
T1 sequence (P08173 1-479): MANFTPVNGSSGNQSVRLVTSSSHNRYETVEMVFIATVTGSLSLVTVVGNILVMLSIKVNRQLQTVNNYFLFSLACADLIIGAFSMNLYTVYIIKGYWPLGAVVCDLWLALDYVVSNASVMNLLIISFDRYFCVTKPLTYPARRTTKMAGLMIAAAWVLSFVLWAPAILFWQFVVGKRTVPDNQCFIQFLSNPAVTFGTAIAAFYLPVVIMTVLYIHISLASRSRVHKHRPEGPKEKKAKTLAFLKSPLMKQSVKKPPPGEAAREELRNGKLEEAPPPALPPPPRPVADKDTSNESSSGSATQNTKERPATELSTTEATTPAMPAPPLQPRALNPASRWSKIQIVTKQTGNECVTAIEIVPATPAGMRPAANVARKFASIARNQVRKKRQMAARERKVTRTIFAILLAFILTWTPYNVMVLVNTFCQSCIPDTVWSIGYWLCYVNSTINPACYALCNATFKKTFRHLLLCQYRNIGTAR

rat M4 (rM4) = rat M4 (rM4) (Rattus norvegicus, UniProt P08485); test: Calcium mobilization assay, rat M4; format: cell-based
[1] = Intrinsic clearance in rat liver microsomes; format: in vitro ADME; settings: for CLint scaled at 1 µM: pH 7.4, rat liver microsomes
Description: (§1) Intrinsic Clearance in Rat and Human Liver Microsomes
(§2) The in vitro intrinsic clearance (CL int) was investigated in commercially obtained hepatic microsomes from rat and human donors using the substrate depletion (i.e., loss-of-parent vs. time, or t 1/2 method) approach with analyte detection via liquid chromatography-tandem mass spectrometry (LC-MS/MS). For each species, mean %parent remaining values at each time point were calculated from replicates raw data (analyte:IS peak area ratios) and used to determine in vitro t 1/2 and CLint.
(§3) Experiments were carried out using a robot-assisted (TECAN model Evo 200). Compound was incubated (1 µM final concentration) in buffer (100 mM potassium phosphate pH 7.4 with 3 mM MgCl2) containing hepatic microsomes (0.5 mg/mL final concentration) from multiple species, discretely, at 37 °C under constant orbital shaking. After 5 minutes (pre-incubation), reactions were initiated by addition of nicotinamide adenine dinucleotide phosphate (NADPH, 1 mM final concentration). At selected time intervals (0, 3, 7, 15, 25, and 45 minutes) post-addition of NADPH, aliquots (50 µL) were taken and placed into a 96-shallow-well plate containing ice cold acetonitrile (150 µL) with carbamazepine (IS, 50 nM). The plates were then centrifuged (3000 rcf at 4 °C) for 10 minutes. The supernatants were transferred to a new 96-shallow-well daughter plate and diluted (1:1 v/v) with water (Milli-Q filtered). The plates were then sealed in preparation for LC-MS/MS analysis (see below).
(§4) Raw LC-MS/MS peak area data generated from the assay samples were used to construct natural log-transformed %parent remaining vs. time plots (using t = 0 minute post-NADPH addition sample data as starting point set to 100%). In vitro compound half-life (t 1/2) values were obtained using the following […]
(§5) k is the slope from linear regression analysis of the natural log-transformed data (using means from Where all replicates at each time point). Resulting t 1/2 values were then used to calculate hepatic CLint values according to the following equation and with the use of species-specific scale-up factors for liver weight (grams) per total body weight (kg): […]
(§6) CLint = in vitro t1/2 x 0.5 mg microsomes x 1 gram liver x kg body wt aScale-up factors used are 45 (rat) and 20 (human).2
(§7) Predicted hepatic clearance (CLhep) was calculated using the following equation: […]
(§8) Qh represents hepatic blood flow (mL/min/kg): 21 for human, 70 for rat, and 90 for mouse.
(§9) Prepared samples were injected (10 µL each) onto an AB Sciex Triple Quad 4500 mass spectrometer system with an Agilent 1260 Infinity II pump and autosampler. Mass spectrometer conditions are described in Table S1. Quantitation of compounds was performed via AB Sciex Multiquant software using the raw analyte:IS peak area ratios. The typical detection range was 0.5 ng/mL to ≥ 5,000 ng/mL utilizing a quadratic equation regression with 1/x2 weighting. […]
(§10) Table S1. LC-MS/MS Conditions*
(§11) Mobile phase A 0.5% Formic Acid in Water
(§12) Mobile phase B 0.5% Formic Acid in Acetonitrile
(§13) Gradient Time % Mobile Phase B

[2] = Intrinsic clearance in human liver microsomes; format: in vitro ADME; settings: for CLint scaled at 1 µM: pH 7.4, human liver microsomes
Description: as §1, §2, §3, §4, §5, §6, §7, §8, §9, §10, §11, §12, §13

[3] = Binding in plasma from rat (equilibrium dialysis); format: in vitro ADME; settings: read-out: rat fu,plasma
Description: (§14) Binding in plasma from rat and human.
(§15) Determination of compounds’ fraction unbound (f u) in plasma from rat and human was conducted in vitro via equilibrium dialysis using HTDialysis membrane plates. Dialysis membranes (four paired strips per HTD assay) were hydrated as described by the manufacturer and inserted into the HTD plate, which was assembled and prepared for sample addition by the dispensing of blank buffer (DPBS, 100 µL/well) into the ‘top half’ of each membrane-split well. Each compound was diluted into plasma from each species (5 µM final concentration), which was aliquoted in triplicate to the ‘bottom half’ of the prepared HTD plate wells. The HTD plate was sealed and incubated for 6 hours at 37 °C. Following incubation, each well (both top and bottom halves) were transferred (20 µL) to the corresponding wells of a 96-shallow-well (V-bottom) plate. The daughter plates were then matrix-matched (buffer side wells received equal volume of plasma, and plasma side wells received equal volume of buffer), and extraction solution (120 µL; acetonitrile containing 50 nM carbamazepine as IS) was added to all wells of both daughter plates to precipitate protein and extract test article. The plates were then sealed and centrifuged (3500 rcf) for 10 minutes at ambient temperature. Supernatant (60 µL) from each well of the daughter plates was then transferred to the corresponding wells of new daughter plates (96-shallow-well, V bottom) containing water (Milli-Q, 60 µL/well), and the plates were sealed in preparation for LC-MS/MS analysis (see below). fu was calculated as (analyte to IS MS peak area ratio from Trans-buffer side) / (analyte to IS MS peak area ratio from Cis-plasma side). Mean values for each species were calculated from 3 replicates.

[4] = Binding in plasma from human (equilibrium dialysis); format: in vitro ADME; settings: human, plasma, read-out: human fu,plasma
Description: as §14, §15

[5] = Binding in brain homogenate from rat (equilibrium dialysis); format: in vitro ADME; settings: for rat fbrain: fraction unbound, equilibrium dialysis, rat brain homogenates; for fraction unbound at 6 h, 1 µM: rat, brain homogenate, in %, read-out: fu,brain (rat brain homogenate)
Description: Binding in brain homogenate from rat.
Determination of fraction unbound (f u) in brain homogenate from rat was conducted using the same methodology and procedure than described for plasma protein binding assay with the following modifications: 1) a final compound concentration of 1 μM was used, 2) naïve rat brains were homogenized in DPBS (1:3 composition of brain: DPBS, w/w) using a Mini-Bead Beater™ machine in order to obtain […]
The diluted fraction unbound (f u2) in brain was calculated as (analyte to IS MS peak area ratio from Trans-buffer side) / (analyte to IS MS peak area ratio from Cis-brain homogenate side). Undiluted fraction unbound for the brain was calculated using the following equation: […]
Mean values for each species were calculated from 3 replicates. […]

[6] = Rat plasma-to-brain level (PBL) cassette, brain distribution; format: in vivo; settings: SD rat, 0.2 mg/kg IV; for Kp,uu, brain:plasma / Kp uu at 0.25 h: unbound brain to unbound plasma ratio; for Kp at 0.25 h / Kp uu at 0.25 h: male, Sprague-Dawley, rat, brain / plasma, iv
[7] = test system: amphetamine-induced hyperlocomotion in rats; test: Rat amphetamine-induced hyperlocomotion (AHL); format: in vivo; settings: 10 mg/kg p.o. + amphetamine 0.75 mg/kg s.c.
Description: Rat Amphetamine-Induced Hyperlocomotion (AHL) Protocol
Male Harlan Sprague Dawley rats with a mean body weight of 240 g (range 221-264 g) were tested in SmartFrame Open Field locomotor activity test chambers to automatically record locomotor activity. All rats were habituated in locomotor activity enclosures for 30 min, followed by pretreatment by oral gavage for an additional 30 min with either vehicle or a dose of VU6016235 or the comparator M 4 PAM VU0467154. Next, rats were injected subcutaneously with vehicle or a dose of 0.75 mg/kg amphetamine and then monitored for an additional 60 min. Changes in locomotor activity were recorded for a total of 120 min. Locomotor data were expressed as the number of photobeam breaks/5 min intervals across the 120-min test session or as the total ambulation, calculated as sum of photobeam beam breaks from the time of amphetamine administration (60 min) until the end of the study (120 min). Time course data were analyzed by two-way ANOVA with main effects of treatment and time; changes in total ambulation were analyzed by one-way ANOVA followed by Dunnett’s post hoc test (GraphPad Prism 7 [GraphPad Software, San Diego, CA]). For all tests, α ≤ 0.05 was considered to represent statistical significance.
Finally, percent reversal data were calculated in Microsoft Excel using the following formula: Percent Reversal = 100 - {[(total ambulation in individual animal from t = 60 to t = 120) / (mean total ambulation […]
from t=60 to t=120 in the VAMP group)] * 100}. Mean percent reversal ± S.E.M. was calculated for each dose group using GraphPad Prism 7.
At the end of this behavioral study, each rat was euthanized, then decapitated, and the plasma and brain tissues were collected for the evaluation of exposure levels of VU6016235-05 or VU0467154-9A by pharmacokinetic analysis. […]

[8] = set-up: method as in PMID 31787491, PMID 34710625; settings: previously reported tricycles, Figure 2; cited from earlier work
[9] = set-up: method as in PMID 31787491, PMID 34710625; settings: previously reported tricycles, Figure 2; cited from earlier work; remark: listed apart in the source
[10] = calcium mobilization, hM4/Gqi5-CHO cells, EC20 acetylcholine
[11] = calcium mobilization, hM4/Gqi5-CHO cells, EC20 acetylcholine, read-out: hM4 EC50
[12] = calcium mobilization, hM4/Gqi5-CHO cells, EC20 acetylcholine, read-out: hM4 pEC50 (converted)
[13] = predicted hepatic clearance from microsomal CLint
[14] = fraction unbound, equilibrium dialysis
[15] = 0.2 mg/kg, total brain to total plasma ratio

Sequence of rat M4 (rM4) (P08485 whole entry): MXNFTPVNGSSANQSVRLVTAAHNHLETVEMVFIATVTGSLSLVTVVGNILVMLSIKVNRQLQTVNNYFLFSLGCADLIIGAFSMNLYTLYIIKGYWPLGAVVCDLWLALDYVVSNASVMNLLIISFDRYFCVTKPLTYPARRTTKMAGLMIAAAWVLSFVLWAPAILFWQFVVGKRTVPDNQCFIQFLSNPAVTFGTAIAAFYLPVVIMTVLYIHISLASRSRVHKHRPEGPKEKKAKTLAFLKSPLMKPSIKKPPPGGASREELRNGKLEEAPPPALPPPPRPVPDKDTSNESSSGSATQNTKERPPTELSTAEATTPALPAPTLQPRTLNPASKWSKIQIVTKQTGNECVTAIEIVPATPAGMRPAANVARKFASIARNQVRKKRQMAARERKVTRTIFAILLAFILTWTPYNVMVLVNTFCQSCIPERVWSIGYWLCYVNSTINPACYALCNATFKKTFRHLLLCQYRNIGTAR

| Compound | fold increase in hM4 potency (EC50) vs comparator analogue (human M4 (hM4)) | Emax (human M4 (hM4); [10]) | EC50 (human M4 (hM4); [11]) | EC50 (human M4 (hM4); [12]) | CLint scaled at 1 µM [1] | CLint scaled at 1 µM [2] | fraction unbound at 6 h, 5 µM [3, 14] | fraction unbound at 6 h, 5 µM [4, 14] | rat fbrain [5] | fraction unbound at 6 h, 1 µM [5] | Kp at 0.25 h [6, 15] | Kp uu at 0.25 h ([6]; 0.2 mg/kg) | other results |
| --- | --- | --- | --- | --- | --- | --- | --- | --- | --- | --- | --- | --- | --- |
| Cc1nc(C)c2c(n1)sc1c(N3CC4(C3)CC(F)(F)C4)ncnc12 [14h] | 16 fold | 50% | 100 nM | 102 nM | 121 mL/min/kg | 45 mL/min/kg | 0.132 | 0.035 | 0.033 | 0.012 to 0.033 | > 5 | > 1 | EC50 (rat M4 (rM4)): 380 nM; CLhep, rat [1, 13]: 44 mL/min/kg; CLhep, human [2, 13]: 14 mL/min/kg; fraction unbound at 6 h, 5 µM ([3]; in %): > 0.05; fraction unbound at 6 h, 5 µM ([4]; in %): 0.01 to 0.05; Kp, brain:plasma ([6]; 0.25 h, total brain to total plasma ratio, 0.2 mg/kg): 5.07; Kp,uu, brain:plasma ([6]; 0.25 h, 0.2 mg/kg): 1.27; Kp,uu, brain:plasma ([6]; 0.25 h, listed as VU6015976, 0.2 mg/kg): 0.76 |
| Cc1nc(C)c2c(n1)sc1c(N3CCC(F)(F)C3)nccc12 [22f] | 19 fold | 97% | < 190 nM | 33.1 nM | 1520 mL/min/kg | 148 mL/min/kg | 0.043 | 0.01 | 0.015 | 0.012 to 0.033 | 8.33 | 2.91 | – |
| COc1ccc(CNc2nccc3c2sc2nc(C)nc(C)c23)cc1F [22j] | 7 fold | 94% | 170 nM | 166 nM | 386 mL/min/kg | 50 mL/min/kg | 0.014 | 0.009 | 0.009 | < 0.01 | 1.69 | 1.01 | – |
| Cc1nc(C)c2c(n1)sc1c(N3CCCC3)nccc12 [22k] | 4 fold | 77% | < 190 nM | – | 3060 mL/min/kg | 124 mL/min/kg | 0.038 | 0.023 | 0.007 | < 0.01 | 18.6 | 3.43 | hM4 pEC50 (human M4 (hM4); [10]): 7.14 |
| Cc1nnc2sc(C(=O)NCc3ccc(S(=O)(=O)C(F)(F)F)cc3)c(N)c2c1C [VU0467154, reference compound] | – | – | – | – | – | – | – | – | – | – | – | – | mean reversal of AHL [7]: 35.4 ± 4.2% |
| Cc1cc(C)c2c(n1)sc1c(N3CC4(COC4)C3)ncnc12 [VU6007215] | – | – | – | – | – | – | – | – | – | – | – | – | rat CLhep [8]: 63 mL/min/kg; Kp [9]: 4.47; Kp,uu [9]: 0.40 |
| COc1cc(N2CC(Nc3ncnc4c3ccc3nn(C)c(C)c34)C2)c(Cl)cn1 [VU6017649] | – | – | – | – | – | – | – | – | – | – | – | – | rat CLhep [8]: 44 mL/min/kg; Kp [9]: 1.55; Kp,uu [9]: 3.88 |
